Data taken from patent EP0286418A1, “Anti-retroviral agents and delivery systems for the same” (priority 1987, dated 1988).

Columns and labels:
[1] = capture / encapsulation volume of ddCTP liposomes; format: physicochemical
Method: The amount of lipid in the preparation was determined from ¹⁴C counts (¹⁴C-cholesteryl oleate) in a standard beta counting scintillation fluid. The amount of ddCTP was assessed from the optical density at 280 nm. Samples for optical density reading were prepared by adding 0.9 ml of 65:25 chloroform ethanol solution to 0.5 ml of the sample. This eliminated light scatter that would otherwise have resulted from the presence of lipid particles. Negative staining electron microscopy was performed using glow-discharged formvar-carbon coated grids and sodium phosphotungstate. Release of ddCTP from liposomes was assessed by dialysis of samples against phosphate buffered saline. The integrity of ddCTP was assessed by high-performance gradient-elution anion exchange chromatography.
The amounts of lipid and ddCTP in the preparation were calculated from ¹⁴C and ³H counts, respectively. Encapsulation was generally in the range of 1.5 - 2 microliters/micromole EPC. The size distribution of liposomes was determined by quasi-elastic light-scattering (QELS) using an N4MD multiple-angle submicron particle size analyzer (Coulter, Hialeah, Fla., USA). […] The profile is substantially similar to that of a fresh preparation. The weight average diameter was about 215 nm with the coefficient of variation being about 100 nm.

[2] = leakage from liposomes at 4°C; format: physicochemical; conditions: liposomes of Example 1 or similar liposomes
in vitro = in vitro ADME; conditions: serum-containing medium with cells

SMILES: Nc1ccn([C@H]2CC[C@@H](COP(=O)(O)OP(=O)(O)OP(=O)(O)O)O2)c(=O)n1 [ddCTP, 2ʹ,3ʹ-dideoxycytidine-5ʹ-triphosphate]
- calculated capture ([1]; Example 1 liposomes (DPPC/DPPG/cholesterol)): 2.6 microliters/micromole lipid
- Encapsulation ([1]; Example 2 liposomes (EPC/PS/cholesterol)): 1.5 - 2 microliters/micromole EPC
- t1/2 for leakage from liposomes [2]: > 60 h
- Percent of total drug 3H as ddCTP (in vitro; 0.5 h): 67.8%
- remaining at 72 h (in vitro; Percent of total drug 3H as ddCTP): 0%
